# Test results as given in patent publication US7109193B2, “Tricyclic diazepines tocolytic oxytocin receptor antagonists” (Wyeth, priority 2001, dated 2006).
# Target: T1, human oxytocin receptor (Homo sapiens, UniProt P30559)
# T1 construct: host or cells: CHO cells (pcDNA3.1 vector)
# T1 sequence (P30559 1-389): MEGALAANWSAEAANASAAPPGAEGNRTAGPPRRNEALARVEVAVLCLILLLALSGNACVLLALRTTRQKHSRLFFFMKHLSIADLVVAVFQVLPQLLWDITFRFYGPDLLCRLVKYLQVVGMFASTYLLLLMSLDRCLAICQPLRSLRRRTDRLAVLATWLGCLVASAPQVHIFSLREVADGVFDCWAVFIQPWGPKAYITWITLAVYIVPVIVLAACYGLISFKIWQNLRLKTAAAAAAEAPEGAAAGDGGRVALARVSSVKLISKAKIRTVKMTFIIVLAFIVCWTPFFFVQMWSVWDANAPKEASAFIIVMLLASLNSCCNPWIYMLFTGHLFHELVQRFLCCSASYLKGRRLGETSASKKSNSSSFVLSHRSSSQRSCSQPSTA
# Assay: Oxytocin binding in Chinese Hamster Ovary cell membranes expressing human oxytocin receptors
# Details: 100 nM, CHO cell membranes, [3H]oxytocin, values without parentheses
row,Compound,OT % inhibition @ 100% nM [%]
1,"COc1ccccc1-c1ccc(C(=O)N2Cc3ccc(C(=O)N4CCC[C@H]4CN4CCCC4)n3Cc3ccccc32)cc1C [Example 259, {10-[(2′-Methoxy-2-methyl[1,1′-biphenyl]-4-yl)carbonyl]-10,11-dihydro-5H-pyrrolo[2,1-c][1,4]benzodiazepin-3-yl}[(2S)-2-(1-pyrrolidinylmethyl)pyrrolidinyl]methanone]",97
2,"COc1ccccc1-c1ccc(C(=O)N2Cc3ccc(C(=O)N4CCC[C@H]4CN4CCCC4)n3Cc3ccccc32)cc1 [Example 265, {10-[(2′-Methoxy[1,1′-biphenyl]-4-yl)carbonyl]-10,11-dihydro-5H-pyrrolo[2,1-c][1,4]benzodiazepin-3-yl}[(2S)-2-(1-pyrrolidinylmethyl)pyrrolidinyl]methanone]",100
3,"COc1cc(C(=O)N2Cc3ccc(C(=O)N4CCC[C@H]4CN4CCCC4)n3Cc3ccccc32)ccc1-c1cccc2ccccc12 [Example 262, {10-[3-Methoxy-4-(1-naphthyl)benzoyl]-10,11-dihydro-5H-pyrrolo[2,1-c][1,4]benzodiazepin-3-yl}[(2S)-2-(1-pyrrolidinylmethyl)pyrrolidinyl]methanone]",76
4,"COc1cccc(-c2cc(OC)c(C(=O)N3Cc4ccc(C(=O)N5CCC[C@H]5CN5CCCC5)n4Cc4ccccc43)cc2Cl)c1 [Example 268, {10-[(6-Chloro-3,3′-dimethoxy[1,1′-biphenyl]-4-yl)carbonyl]-10,11-dihydro-5H-pyrrolo[2,1-c][1,4]benzodiazepin-3-yl}[(2S)-2-(1-pyrrolidinylmethyl)pyrrolidinyl]methanone]",90
5,"COc1cc(C(=O)N2Cc3ccc(C(=O)N4CCC[C@H]4CN4CCCC4)n3Cc3ccccc32)ccc1-n1c(C)ccc1C [Example 321, {10-[4-(2,5-Dimethyl-1H-pyrrol-1-yl)-3-methoxybenzoyl]-10,11-dihydro-5H-pyrrolo[2,1-c][1,4]benzodiazepin-3-yl}[(2S)-2-(1-pyrrolidinylmethyl)pyrrolidinyl]methanone]",62
6,"COc1cccc(-c2ccc(C(=O)N3Cc4ccc(C(=O)N5CC[C@@H](N(C)C)C5)n4Cc4ccccc43)cc2OC)c1 [Example 283, {10-[(2,3′-Dimethoxy[1,1′-biphenyl]-4-yl)carbonyl]-10,11-dihydro-5H-pyrrolo[2,1-c][1,4]benzodiazepin-3-yl}[(3R)-3-(dimethylamino)pyrrolidinyl]methanone]",91
7,"Cc1ccccc1-c1ccc(C(=O)N2Cc3ccc(C(=O)N4CCC[C@H]4CN4CCCC4)n3Cc3ccccc32)cc1 [Example 264, {10-[(2′-Methyl[1,1′-biphenyl]-4-yl)carbonyl]-10,11-dihydro-5H-pyrrolo[2,1-c][1,4]benzodiazepin-3-yl}[(2S)-2-(1-pyrrolidinylmethyl)pyrrolidinyl]methanone]",94

# Same assay, conditions: 100 nM, CHO cell membranes, [3H]oxytocin, values without parentheses, read-out: OT % inhibition @ 100% nM
row,Compound,inhibition at 0.1 µM [%]
1,"COc1ccccc1-c1ccc(C(=O)N2Cc3ccc(C(=O)N4CCC(N5CCCC5)CC4)n3Cc3ccccc32)cc1C [Example 137, {10-[(2′-Methoxy-2-methyl[1,1′-biphenyl]-4-yl)carbonyl]-10,11-dihydro-5H-pyrrolo[2,1-c][1,4]benzodiazepin-3-yl}[4-(1-pyrrolidinyl)-1-piperidinyl]methanone]",88
2,"COc1ccccc1-c1ccc(C(=O)N2Cc3ccc(C(=O)NCCN4CCCCC4)n3Cc3ccccc32)cc1 [Example 152, 10-[(2′-Methoxy[1,1′-biphenyl]-4-yl)carbonyl]-N-[2-(1-piperidinyl)ethyl]-10,11-dihydro-5H-pyrrolo[2,1-c][1,4]benzodiazepine-3-carboxamide]",63
3,"Cc1cc(C(=O)N2Cc3ccc(C(=O)N(CCCN(C)C)CCCN(C)C)n3Cc3ccccc32)ccc1-c1ccccc1C(F)(F)F [Example 3, 10-[(2-Methyl-2′-trifluoromethyl-[1,1′-biphenyl]-4-yl)-carbonyl]-10,11-dihydro-5H-pyrrolo[2,1-c][1,4]benzodiazepine-3-carboxylic acid bis-(3-dimethylamino-propyl)-amide]",37
4,"Cc1ccccc1-c1ccc(C(=O)N2Cc3ccc(C(=O)N4CCC(N5CCCCC5)CC4)n3Cc3ccccc32)cc1 [Example 115, {10-[(2′-Methyl[1,1′-biphenyl]-4-yl)carbonyl]-10,11-dihydro-5H-pyrrolo[2,1-c][1,4]benzodiazepin-3-yl}[4-(1-piperidinyl)-1-piperidinyl]methanone]",25
5,"COc1cc(C(=O)N2Cc3ccc(C(=O)N4CCC(N5CCCCC5)CC4)n3Cc3ccccc32)ccc1-c1cccc2ccccc12 [Example 118, {10-[3-Methoxy-4-(1-naphthyl)-benzoyl]-10,11-dihydro-5H-pyrrolo[2,1-c][1,4]benzodiazepin-3-yl}[4-(1-piperidinyl)-1-piperidinyl]methanone]",54
6,"COc1cc(C(=O)N2Cc3ccc(C(=O)N4CCC(N5CCCC5)CC4)n3Cc3ccccc32)ccc1-c1ccccc1C [Example 142, {10-[(2-Methoxy-2′-methyl[1,1′-biphenyl]-4-yl)carbonyl]-10,11-dihydro-5H-pyrrolo[2,1-c][1,4]benzodiazepin-3-yl}[4-(1-pyrrolidinyl)-1-piperidinyl]methanone]",83
7,"Cc1cc(C(=O)N2Cc3ccc(C(=O)N4CCC(N5CCCC5)CC4)n3Cc3ccccc32)ccc1-c1ccccc1C(F)(F)F [Example 148, (10-{[2-Methyl-2′-(trifluoromethyl)[1,1′-biphenyl]-4-yl]carbonyl}-10,11-dihydro-5H-pyrrolo[2,1-c][1,4]benzodiazepin-3-yl)[4-(1-pyrrolidinyl)-1-piperidinyl]methanone]",78
8,"COc1cc(C(=O)N2Cc3ccc(C(=O)NCCCn4ccnc4)n3Cc3ccccc32)ccc1-c1cccc2ccccc12 [Example 131, N-[3-(1H-Imidazol-1-yl)propyl]-10-[3-methoxy-4-(1-naphthyl)benzoyl]-10,11-dihydro-5H-pyrrolo[2,1-c][1,4]benzodiazepine-3-carboxamide]",26
9,"Cc1ccccc1-c1ccc(C(=O)N2Cc3ccc(C(=O)NCCCn4ccnc4)n3Cc3ccccc32)cc1C [Example 124, 10-[(2,2′-Dimethyl[1,1′-biphenyl]-4-yl)carbonyl]-N-[3-(1H-imidazol-1-yl)propyl]-10,11-dihydro-5H-pyrrolo[2,1-c][1,4]benzodiazepine-3-carboxamide]",60
10,"COc1cccc(-c2ccc(C(=O)N3Cc4ccc(C(=O)NCCN5CCCCC5)n4Cc4ccccc43)cc2C)c1 [Example 151, 10-[(3′-Methoxy-2-methyl[1,1′-biphenyl]-4-yl)carbonyl]-N-[2-(1-piperidinyl)ethyl]-10,11-dihydro-5H-pyrrolo[2,1-c][1,4]benzodiazepine-3-carboxamide]",47
11,"Cc1ccccc1-c1ccc(C(=O)N2Cc3ccc(C(=O)NCCCn4ccnc4)n3Cc3ccccc32)cc1 [Example 127, N-[3-(1H-Imidazol-1-yl)propyl]-10-[(2′-methyl[1,1′-biphenyl]-4-yl)carbonyl]-10,11-dihydro-5H-pyrrolo[2,1-c][1,4]benzodiazepine-3-carboxamide]",29
12,"COc1cc(C(=O)N2Cc3ccc(C(=O)NCCCn4ccnc4)n3Cc3ccccc32)ccc1-c1ccccc1C [Example 128, N-[3-(1H-Imidazol-1-yl)propyl]-10-[(2-methoxy-2′-methyl[1,1′-biphenyl]-4-yl)carbonyl]-10,11-dihydro-5H-pyrrolo[2,1-c][1,4]benzodiazepine-3-carboxamide]",43

# System: not given
# Assay: not given
# Details: not given
row,Compound,melting point [°C]
1,"Cc1cc(C(=O)N2Cc3ccc(C(=O)N(CCCN(C)C)CCCN(C)C)n3Cc3ccccc32)ccc1-c1ccccc1C(F)(F)F [Example 3, 10-[(2-Methyl-2′-trifluoromethyl-[1,1′-biphenyl]-4-yl)-carbonyl]-10,11-dihydro-5H-pyrrolo[2,1-c][1,4]benzodiazepine-3-carboxylic acid bis-(3-dimethylamino-propyl)-amide]",55 to 64
